Drawing on ChEMBL document CHEMBL6182830, “Hepatocyte targeting via the asialoglycoprotein receptor” (RSC Med Chem, 2025), this text covers Kd for 8 compounds.

The assay in a line: Binding affinity to human ASGR assessed as dissociation constant by SPR analysis.
In the case of `CC(=O)N[C@@H]1[C@@H](O)[C@@H](O)[C@@H](CO)O[C@H]1O`, the dissociation constant (Kd) is 40.4 µM.

As to `CO[C@@H]1O[C@H](CO)[C@H](O)[C@H](O)[C@H]1O`, the Kd turned out to be 880 µM. On to `O=C(N[C@H]1[C@H]2OC[C@](CO)(O2)[C@H](O)[C@@H]1O)C(F)(F)F`, for which the Kd came to 1.8 µM. As for `CC(=O)N[C@H]1[C@H]2OC[C@](CO)(O2)[C@H](O)[C@@H]1O`, the figure is 7.2 µM. As to `C[C@@H]1O[C@H](CO)[C@H](O)[C@H](O)[C@H]1NC(=O)C(F)(F)F`, the equilibrium dissociation constant (Kd) was determined as 14.8 µM.

`CC(=O)N[C@@H]1[C@@H](O)[C@@H](O)[C@@H](CO)O[C@H]1C`: the Kd is 41 µM.

In the case of `COc1cccc(-n2cc(C[C@H]3O[C@H](OCC(O)CNCc4ccccc4)[C@H](NC(=O)C(F)(F)F)[C@@H](O)[C@H]3O)nn2)c1` (stereo partly drawn), the Kd worked out at 1.2 µM.

Turning to `C=CCO[C@H]1O[C@H](CN=[N+]=[N-])[C@H](O)[C@H](O)[C@H]1NC(C)=O`, the Kd is 1.6 µM.
